Measurements: PubChem BioAssay (NCI)
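Where inhibition never reached the appropriate level, the endpoint shown equals the highest concentration tested. Otherwise, values were interpolated linearly from a five-concentration, 48-hour dose response in 96-well plates. At the TGI there is no net growth.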

Key:
Test in all cases: NCI anticancer screen, dose series, 48 h
NCI/ADR-RES ovarian = tested on: NCI/ADR-RES ovarian
COLO 205 colon = tested on: COLO 205 colon
TK-10 renal = tested on: TK-10 renal
UACC-257 melanoma = tested on: UACC-257 melanoma
T-47D breast = tested on: T-47D breast
SN12C renal = tested on: SN12C renal
HOP-92 NSCLC = tested on: HOP-92 NSCLC
UACC-62 melanoma = tested on: UACC-62 melanoma
OVCAR-4 ovarian = tested on: OVCAR-4 ovarian
MOLT-4 leukemia = tested on: MOLT-4 leukemia
SK-MEL-5 melanoma = tested on: SK-MEL-5 melanoma
SF-539 CNS = tested on: SF-539 CNS
EKVX NSCLC = tested on: EKVX NSCLC
NCI-H460 lung = tested on: NCI-H460 lung
MALME-3M melanoma = tested on: MALME-3M melanoma
SK-MEL-2 melanoma = tested on: SK-MEL-2 melanoma
CCRF-CEM leukemia = tested on: CCRF-CEM leukemia
SR leukemia = tested on: SR leukemia
OVCAR-8 ovarian = tested on: OVCAR-8 ovarian
NCI-H226 lung = tested on: NCI-H226 lung
MDA-N = tested on: MDA-N
RPMI-8226 leukemia = tested on: RPMI-8226 leukemia
NCI-H23 lung = tested on: NCI-H23 lung
K-562 leukemia = tested on: K-562 leukemia
RXF 393 renal = tested on: RXF 393 renal
HCT-15 colon = tested on: HCT-15 colon
OVCAR-5 ovarian = tested on: OVCAR-5 ovarian
HCC-2998 colon = tested on: HCC-2998 colon
U251 CNS = tested on: U251 CNS
SNB-19 CNS = tested on: SNB-19 CNS
SW-620 colon = tested on: SW-620 colon
HOP-62 NSCLC = tested on: HOP-62 NSCLC
MDA-MB-231 breast = tested on: MDA-MB-231 breast
KM12 colon = tested on: KM12 colon
A549 NSCLC = tested on: A549 NSCLC
MCF7 breast = tested on: MCF7 breast
A498 renal = tested on: A498 renal
BT-549 breast = tested on: BT-549 breast
MDA-MB-435 = tested on: MDA-MB-435
SK-OV-3 ovarian = tested on: SK-OV-3 ovarian
CAKI-1 renal = tested on: CAKI-1 renal
DU-145 prostate = tested on: DU-145 prostate
ACHN renal = tested on: ACHN renal
M14 melanoma = tested on: M14 melanoma
SK-MEL-28 melanoma = tested on: SK-MEL-28 melanoma
OVCAR-3 ovarian = tested on: OVCAR-3 ovarian
SF-268 CNS = tested on: SF-268 CNS
HL-60(TB) leukemia = tested on: HL-60(TB) leukemia
HCT-116 colon = tested on: HCT-116 colon
HT29 colon = tested on: HT29 colon
IGROV1 ovarian = tested on: IGROV1 ovarian
PC-3 prostate = tested on: PC-3 prostate
UO-31 renal = tested on: UO-31 renal
HS 578T breast = tested on: HS 578T breast
NCI-H522 lung = tested on: NCI-H522 lung
SF-295 CNS = tested on: SF-295 CNS
LOX IMVI melanoma = tested on: LOX IMVI melanoma
786-0 renal = tested on: 786-0 renal
SNB-75 CNS = tested on: SNB-75 CNS

COc1cccc(-c2nnc3c(-c4ccccc4)nc4ccccc4n23)c1
TGI (NCI/ADR-RES ovarian): > 100 µM | TGI (COLO 205 colon): > 100 µM | TGI (TK-10 renal): > 100 µM | TGI (UACC-257 melanoma): > 100 µM | TGI (T-47D breast): 17.3 µM | TGI (SN12C renal): > 100 µM | TGI (HOP-92 NSCLC): > 100 µM | TGI (UACC-62 melanoma): > 100 µM | TGI (OVCAR-4 ovarian): > 100 µM | TGI (MOLT-4 leukemia): > 63.8 µM | TGI (SK-MEL-5 melanoma): 77.6 µM | TGI (SF-539 CNS): > 100 µM | TGI (EKVX NSCLC): > 100 µM | TGI (NCI-H460 lung): 98.7 µM | TGI (MALME-3M melanoma): > 83.7 µM | TGI (SK-MEL-2 melanoma): 44.3 µM | TGI (CCRF-CEM leukemia): 39.1 µM | TGI (SR leukemia): > 54.8 µM | TGI (OVCAR-8 ovarian): > 100 µM | TGI (NCI-H226 lung): > 100 µM | TGI (MDA-N): 14.2 µM | TGI (RPMI-8226 leukemia): 26.4 µM | TGI (NCI-H23 lung): > 100 µM | TGI (K-562 leukemia): > 56.5 µM | TGI (RXF 393 renal): 94.7 µM | TGI (HCT-15 colon): > 100 µM | TGI (OVCAR-5 ovarian): > 100 µM | TGI (HCC-2998 colon): 62.7 µM | TGI (U251 CNS): > 100 µM | TGI (SNB-19 CNS): > 100 µM | TGI (SW-620 colon): > 100 µM | TGI (HOP-62 NSCLC): > 100 µM | TGI (MDA-MB-231 breast): > 100 µM | TGI (KM12 colon): > 43.7 µM | TGI (A549 NSCLC): > 100 µM | TGI (MCF7 breast): > 100 µM | TGI (A498 renal): 93.4 µM | TGI (BT-549 breast): > 100 µM | TGI (MDA-MB-435): 8.62 µM | TGI (SK-OV-3 ovarian): > 100 µM | TGI (CAKI-1 renal): > 86.6 µM | TGI (DU-145 prostate): > 100 µM | TGI (ACHN renal): > 100 µM | TGI (M14 melanoma): > 100 µM | TGI (SK-MEL-28 melanoma): > 100 µM | TGI (OVCAR-3 ovarian): > 100 µM | TGI (SF-268 CNS): > 100 µM | TGI (HL-60(TB) leukemia): 34 µM | TGI (HCT-116 colon): > 100 µM | TGI (HT29 colon): > 100 µM | TGI (IGROV1 ovarian): > 100 µM | TGI (PC-3 prostate): > 100 µM | TGI (UO-31 renal): > 100 µM | TGI (HS 578T breast): > 100 µM | TGI (NCI-H522 lung): 22.7 µM | TGI (SF-295 CNS): > 100 µM | TGI (LOX IMVI melanoma): > 100 µM | TGI (786-0 renal): > 100 µM

c1ccc(COC2NCCN2Cc2ccccc2)cc1 (stereo unspecified)
TGI (NCI/ADR-RES ovarian): > 100 µM | TGI (COLO 205 colon): > 100 µM | TGI (TK-10 renal): > 100 µM | TGI (UACC-257 melanoma): > 100 µM | TGI (T-47D breast): > 100 µM | TGI (SN12C renal): > 100 µM | TGI (HOP-92 NSCLC): > 100 µM | TGI (UACC-62 melanoma): > 100 µM | TGI (OVCAR-4 ovarian): > 100 µM | TGI (MOLT-4 leukemia): > 100 µM | TGI (SK-MEL-5 melanoma): > 100 µM | TGI (SF-539 CNS): > 100 µM | TGI (EKVX NSCLC): > 100 µM | TGI (NCI-H460 lung): > 100 µM | TGI (MALME-3M melanoma): > 100 µM | TGI (SK-MEL-2 melanoma): > 100 µM | TGI (CCRF-CEM leukemia): > 100 µM | TGI (SR leukemia): > 100 µM | TGI (OVCAR-8 ovarian): > 100 µM | TGI (NCI-H226 lung): > 100 µM | TGI (MDA-N): > 100 µM | TGI (RPMI-8226 leukemia): > 100 µM | TGI (NCI-H23 lung): > 100 µM | TGI (K-562 leukemia): > 100 µM | TGI (RXF 393 renal): > 100 µM | TGI (HCT-15 colon): > 100 µM | TGI (OVCAR-5 ovarian): > 100 µM | TGI (U251 CNS): > 100 µM | TGI (SNB-19 CNS): > 100 µM | TGI (SW-620 colon): > 100 µM | TGI (HOP-62 NSCLC): > 100 µM | TGI (MDA-MB-231 breast): > 100 µM | TGI (KM12 colon): > 100 µM | TGI (A549 NSCLC): > 100 µM | TGI (MCF7 breast): > 100 µM | TGI (A498 renal): > 100 µM | TGI (BT-549 breast): > 100 µM | TGI (MDA-MB-435): > 100 µM | TGI (SK-OV-3 ovarian): > 100 µM | TGI (CAKI-1 renal): > 100 µM | TGI (DU-145 prostate): > 100 µM | TGI (ACHN renal): > 100 µM | TGI (M14 melanoma): > 100 µM | TGI (SK-MEL-28 melanoma): > 100 µM | TGI (OVCAR-3 ovarian): > 100 µM | TGI (SF-268 CNS): > 100 µM | TGI (HL-60(TB) leukemia): > 100 µM | TGI (HCT-116 colon): > 100 µM | TGI (HT29 colon): > 100 µM | TGI (IGROV1 ovarian): > 100 µM | TGI (PC-3 prostate): > 100 µM | TGI (SNB-75 CNS): > 100 µM | TGI (UO-31 renal): > 100 µM | TGI (HS 578T breast): > 100 µM | TGI (NCI-H522 lung): > 100 µM | TGI (SF-295 CNS): > 100 µM | TGI (LOX IMVI melanoma): > 100 µM | TGI (786-0 renal): > 100 µM
